Measured values reported in ChEMBL document CHEMBL1127728, “Docking analysis of a series of benzylamino acetylcholinesterase inhibitors with a phthalimide, benzoyl, or indanone moiety” (J Med Chem, 1994).

target: T1, Acetylcholinesterase (Rattus norvegicus, UniProt P37136); assay: Inhibition concentration against rat acetylcholinesterase
T1 sequence (P37136 whole entry): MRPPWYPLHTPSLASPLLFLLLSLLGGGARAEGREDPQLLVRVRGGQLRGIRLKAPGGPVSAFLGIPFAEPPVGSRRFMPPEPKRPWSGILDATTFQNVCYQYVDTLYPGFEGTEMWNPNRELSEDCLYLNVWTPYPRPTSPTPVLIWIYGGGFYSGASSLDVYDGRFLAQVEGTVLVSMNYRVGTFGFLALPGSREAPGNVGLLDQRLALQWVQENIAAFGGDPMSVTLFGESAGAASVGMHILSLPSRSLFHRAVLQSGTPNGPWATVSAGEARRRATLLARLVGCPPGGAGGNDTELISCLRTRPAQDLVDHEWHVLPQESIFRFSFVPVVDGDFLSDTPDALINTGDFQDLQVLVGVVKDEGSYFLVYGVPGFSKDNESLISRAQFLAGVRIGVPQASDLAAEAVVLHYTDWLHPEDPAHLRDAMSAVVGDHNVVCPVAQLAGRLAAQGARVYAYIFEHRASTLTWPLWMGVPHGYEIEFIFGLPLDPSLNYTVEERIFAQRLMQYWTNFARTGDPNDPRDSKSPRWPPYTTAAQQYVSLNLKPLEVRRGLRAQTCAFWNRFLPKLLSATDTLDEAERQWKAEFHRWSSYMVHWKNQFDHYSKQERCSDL

| SMILES | IC50 [µM] |
| --- | --- |
| COc1ccccc1CN1CCC(CCC(=O)c2ccc(N3CCCC3)cc2)CC1 | 1.9 |
| CCN(CCCCCN(C(C)=O)C(=O)/C=C/c1ccc([N+](=O)[O-])cc1)Cc1ccccc1 | 0.539 |
| O=C1c2ccc([N+](=O)[O-])cc2C(=O)N1C1CCN(Cc2ccccc2)CC1 | 27 |
| CCN(CCCCCN(C(C)=O)C(=O)/C=C/c1ccccc1)Cc1ccccc1 | 2.3 |
| O=C1c2ccc([N+](=O)[O-])cc2C(=O)N1CC1CCN(Cc2ccccc2)CC1 | 3 |
| CCN(CCCCCCC(=O)c1ccc(OC)c(OC)c1)Cc1ccccc1OC | 0.01 |
| CCN(CCCCCN1C(=O)c2ccccc2C1=O)Cc1ccccc1 | 3.37 |
| CCN(CCCCCC(=O)c1ccc(N2CCCC2)cc1)Cc1ccccc1 | 0.305 |
| O=C1c2ccccc2C(=O)N1CCC1CCN(Cc2ccccc2)CC1 | 0.03 |
| COc1ccc(C(=O)CCC2CCN(Cc3ccccc3)CC2)cc1OC | 0.052 |
| CCN(CCCCCN1C(=O)C2CCCCC2C1=O)Cc1ccccc1 (stereo unspecified) | 18.5 |
| CCN(CCCCCCN1C(=O)c2ccc([N+](=O)[O-])cc2C1=O)Cc1ccccc1 | 0.607 |
| CCN(CCCCCC(=O)c1ccc(OC)c(OC)c1)Cc1ccccc1OC | 0.024 |
| CN(CCCCCCN1C(=O)c2ccc([N+](=O)[O-])cc2C1=O)Cc1ccccc1 | 0.474 |
| O=C1c2ccc([N+](=O)[O-])cc2C(=O)N1CCC1CCN(Cc2ccccc2)CC1 | 0.013 |
| CN(CCCCCN1C(=O)c2ccc([N+](=O)[O-])cc2C1=O)Cc1ccccc1 | 1.36 |
| CCN(CCCCCN1C(=O)c2ccc([N+](=O)[O-])cc2C1=O)Cc1cccc(OC(=O)NC)c1 | 0.00038 |
| CCN(CCCCCCCc1ccc(OC)c(OC)c1)Cc1ccccc1OC | 1.07 |
| CCCN(CCCCCN1C(=O)c2ccc([N+](=O)[O-])cc2C1=O)Cc1ccccc1 | 2.65 |
| CCN(CCCCCN1C(=O)c2ccc([N+](=O)[O-])cc2C1=O)CCCc1ccccc1 | 0.161 |
| CCN(CCCCCN1C(=O)c2ccc([N+](=O)[O-])cc2C1=O)CCc1ccccc1 | 0.77 |
| CCN(CCCCCNC(=O)/C=C/c1ccccc1)Cc1ccccc1 | 11.8 |
| CCN(CCCCCN1C(=O)c2ccc([N+](=O)[O-])cc2C1=O)Cc1cccc(OC)c1OC | 0.274 |
| CCN(CCCCCCOc1ccc(OC)c(OC)c1)Cc1ccccc1OC | 0.92 |
| CCN(CCCCCN1C(=O)c2ccc([N+](=O)[O-])cc2C1=O)Cc1ccccc1OC | 0.024 |
| CCN(CCCCCN1C(=O)c2ccc([N+](=O)[O-])cc2C1=O)CC1CCCCC1 | 1.09 |
